Data published in US5216124A, “Substituted cyclic tetrapeptides” (G. D. Searle & Co., priority 1991, dated 1993).
pIC50: −log10 of the molar value. Entries after “also recorded” stand apart in the source; their conditions may differ. Structures can show the parent of a compound that is named as a salt. Positions of bridges follow the written chain, without caps; N, C: chain ends. Non-standard residues stand in square brackets, D forms with d. Residues, ends and D or L forms follow the SMILES beside them. Dmt = Cc1cc(O)cc(C)c1C[C@H](N)C(=O)O; dPen = CC(C)(S)[C@@H](N)C(=O)O

Experiments:
CD Charles River mice = experiment: Writhing Assay (PBQ-induced writhing); assay type: in vivo, mouse; details: for number of mice out of ten in which peptide was active, Intragastric: 10 mg/kg i.g., PBQ i.p. 15 min after dosing; for ED50 value, subcutaneous: s.c.
Description: The "Writhing Assay" is one of the most widely-used experimental procedures for measuring the analgesic activity of different narcotic and nonnarcotic analgesic agents, and involves the continuous, chemically-induced pain of visceral origin to an animal, such as a mouse or rat. [Gyires et al., Arch. int. Pharmacodyn, 267, 131-140 (1984); C. Vander Wende et al., Fed. Proc., 15, 494 (1956); Koster et al., Fed. Proc., 18, 412 (1959); and Witken et al., J. Pharmacol. Exp. Ther., 133, 400-408 (1961). ] Chemicals which may be used to induce this pain include phenylbenzoquinone (PBQ) and acetic acid. As a result of the chemical irritation to the animal, a characteristic stretching and writhing of the animal (dorsiflexion of the animal's back, extension of its hindlimbs an the strong contraction of its abdominal musculature) will generally occur. […] Drugs which reduce the number of writhes of the animal appear to restore the normal nociceptive threshold of the animal.
This assay was conducted generally in the manner described by R. I. Taber, "Predictive Value of Analgesic Assays in Mice and Rats,"Advances in Biochemical Psychopharmacology, 8, 191 (1974). The Methyl Ester Tetrapeptide and Test Tetrapeptides Nos. 1, 3, 4, 5, 6, 7, 8 and 9 were tested in this assay.
Two hundred CD Charles River mice, weighing 20 to 30 grams were used in this assay.
Twenty-five minutes after subcutaneous administration, and fifteen minutes after intragastric administration, to the mice of 10 mg per kilogram of body weight of either a Test Tetrapeptide or the Methyl Ester Tetrapeptide, […] of body weight of a 0.025% w/v solution of PBQ was injected intraperitoneally into each mouse. Some mice were given saline in place of a Test Tetrapeptide or the Methyl Ester Tetrapeptide, and were used as a control group.
Five minutes later, each mouse was individually placed into a glass beaker for observation, and the number of writhes occurring during the following ten-minute period was counted.
A tetrapeptide compound was considered to be "active" (to have produced analgesia in a mouse) if, in accordance with the conditions set forth above, and under the test criteria employed for this assay, after the administration of 10 mg per kilogram of body weight of the tetrapeptide to the mouse, the number of writhes elicited by a mouse injected with PBQ was equal to, or less than, one-half the median number of writhes recorded for the saline-treated control group of mice that day, as described by R. I. Taber, supra.
The standard initial screening dose of a compound employed in this assay was 10 mg per kilogram (mpk) of body weight for both routes of administration. If this initial screening dose of the tetrapeptide produced analgesia in seven of ten mice, then the effect of additional doses of the tetrapeptide on the writhing response was evaluated, and then the ED50 value (that dose of a Test Tetrapeptide or the Methyl Ester Tetrapeptide which produced analgesia in 50% of the mice to which the tetrapeptide was administered) was generally calculated. A maximum likelihood function was used to determine the ED50 value. (The slopes of the dose-response curves for all tetrapeptides analyzed were compared as described by Tallarida and Murray, Manual of Pharmacologic Calculations, Page 11 (Springer Verlag, N.Y., 1981)).

[1] = tested on: Charles River albino mice; experiment: Tail Flick Assay; assay type: in vivo, mouse; details: listed as Test Tetrapeptide No. 1, monohydrochloride
Description: (§1) The "Tail Flick Assay" and the "Hot Plate Assay" (also known as the "Hind Paw Lick Assay") use thermal pain of transient duration, and are tests in which the pain threshold of the mice or rats being analyzed has not been altered. They are useful for evaluating the ability of a compound or drug to increase the animal's pain threshold (i.e. prolong response latencies), rather than to restore normal thresholds.
(§2) The heat-induced response to the Tail Flick Assay is a reflex reaction mediated at the level of the spinal cord. The heat-induced response to the Hot Plate Assay, however, is a more complex behavior requiring integration at higher centers in the brain. […]
(§3) Tail flick response latencies (defined as the time that elapsed between the onset of a high intensity beam of light and the reflex removal of the mouse or rat's tail) and hot plate response latencies (defined as the time that elapsed between the placement of a mouse or rat on a 55 degrees Celsius surface and a lick of the hind paw) were separately, but consecutively, measured before (baseline) and again at fixed intervals after subcutaneous or intracerebroventricular administration of one of the tetrapeptide compounds of the invention, the Methyl Ester Tetrapeptide, the Mosberg Tetrapeptide, or after the administration of saline (controls). […]

[2] = tested on: Charles River albino mice; experiment: Hot Plate Assay (Hind Paw Lick Assay); assay type: in vivo, mouse
Description: as §1, §2, §3

δ opioid receptors = δ opioid receptors (Rattus norvegicus, UniProt P33533); experiment: Opiate Binding Assay, displacement of 3[H]-DSLET
μ opioid receptors = μ opioid receptors (Rattus norvegicus, UniProt P33535); experiment: Opiate Binding Assay, displacement of 3[H]-DAMPGO
Chain of μ opioid receptors (P33535 whole entry): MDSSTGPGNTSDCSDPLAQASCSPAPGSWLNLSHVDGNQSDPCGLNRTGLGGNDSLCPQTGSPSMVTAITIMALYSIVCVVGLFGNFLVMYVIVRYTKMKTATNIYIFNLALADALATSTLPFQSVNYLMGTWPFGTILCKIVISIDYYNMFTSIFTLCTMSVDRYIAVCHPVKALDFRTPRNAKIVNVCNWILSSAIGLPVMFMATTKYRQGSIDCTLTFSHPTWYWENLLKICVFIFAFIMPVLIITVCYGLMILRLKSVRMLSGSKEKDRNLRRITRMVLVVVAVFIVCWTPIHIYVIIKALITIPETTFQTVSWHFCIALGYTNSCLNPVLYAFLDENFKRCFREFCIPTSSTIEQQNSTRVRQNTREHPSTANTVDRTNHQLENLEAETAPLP

Chain of δ opioid receptors (P33533 whole entry): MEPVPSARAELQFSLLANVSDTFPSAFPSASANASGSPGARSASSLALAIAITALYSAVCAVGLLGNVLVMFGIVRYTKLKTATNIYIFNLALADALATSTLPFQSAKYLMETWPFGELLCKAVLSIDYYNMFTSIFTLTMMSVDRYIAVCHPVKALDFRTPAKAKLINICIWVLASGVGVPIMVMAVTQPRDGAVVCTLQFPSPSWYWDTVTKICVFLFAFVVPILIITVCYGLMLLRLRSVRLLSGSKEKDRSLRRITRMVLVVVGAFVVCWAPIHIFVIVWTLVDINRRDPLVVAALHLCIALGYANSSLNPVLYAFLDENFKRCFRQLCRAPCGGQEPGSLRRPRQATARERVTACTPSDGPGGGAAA

Molecule	number of mice out of ten in which peptide was active, Intragastric (CD Charles River mice)	ED50 value, subcutaneous (CD Charles River mice)	ED50 value, subcutaneous (CD Charles River mice; PBQ i.p. 25 min after dosing) [mpk]	activity (increase in tail flick latency), Intracerebroventricular ([1]; i.c.v., at 1 μg/kg)	activity (increase in tail flick latency), Subcutaneous ([1]; s.c., at 100 mpk, 100 mg/kg)	activity (increase in hot plate latency), Intracerebroventricular ([2]; i.c.v., at 1.0 μg/kg)	activity (increase in hot plate latency), Subcutaneous ([2]; s.c., at 100 mpk, listed as Test Tetrapeptide No. 1, monohydrochloride, 100 mg/kg)	Mean IC50 Value μ/δ Ratio (δ opioid receptors; ratio of mean IC50 μ to δ, above 1.0 = more specific for δ)	number of mice out of ten in which peptide was active, Subcutaneous (CD Charles River mice; 10 mg/kg s.c., PBQ i.p. 25 min after dosing)	Percent Displacement (δ) (δ opioid receptors; at 100 nM, 3[H]-DSLET) [%]	Percent Displacement (μ) (μ opioid receptors; at 100 nM, 3[H]-DAMPGO) [%]	pIC50 (δ opioid receptors)	pIC50 (μ opioid receptors)
COC(=O)[C@@H]1NC(=O)[C@H](Cc2ccccc2)NC(=O)[C@H](NC(=O)[C@@H](N)Cc2c(C)cc(O)cc2C)CSSC1(C)C [Example 25, 2,6-dimethyl-L-tyrosyl-D-cysteinyl-L-phenylalanyl-3-mercapto-D-valine, cyclic (2→4)-disulfide. methyl ester, monohydrochloride] (H-[Dmt][dC]F[dPen]-OMe; disulfide 2-4)	3/10	4.1 mg per kg of body weight	4.1	active	Active; also recorded: showed activity	Active	Active; also recorded: showed activity	1.2	–	–	–	–	–
2,6-dimethyl-L-tyrosyl-D-cysteinyl-4-chloro-L-phenylalanyl-3-mercapto-D-valine, cyclic (2→4)-disulfide, methyl ester, monohydrochloride [Example 32]	4/10	–	–	–	–	–	–	–	4/10	44	18	–	–
Cc1cc(O)cc(C)c1C[C@H](N)C(=O)N[C@@H]1CSSC(C)(C)[C@H](C(=O)O)NC(=O)[C@H](Cc2ccccc2)NC1=O [Example 4, 2,6-dimethyl-L-tyrosyl-D-cysteinyl-L-phenylalanyl-3-mercapto-D-valine, cyclic (2→4)-disulfide] (H-[Dmt][dC]F[dPen]-OH; disulfide 2-4)	–	–	–	–	–	–	–	–	–	–	–	9.40	8.27
